Holding throughout (assay): Viability curves to CDDP, resistant vs sensitive subtype
What all share (format): cell-based

Assay [1] has as its system 41M/41MR ovarian cancer cell lines. The conditions noted are these: IC50 of resistant cell line/IC50 of sensitive cell line; 41MR vs 41M; p<0.001. How it is done:
(§1) FIG. 1. Viability curves to CDDP and CBDCA. The curves show CDDP resistance of cells (A) H23R, (B) H460R, (C) A2780R and (D) 41MR; and to CBDCA of cells (E) H23R-CBDCA and (F) A2780R-CBDCA. The data was normalized with respect to the untreated control, which was established as 100%. IC50 is the concentration that induces the death of 50% of the cell population. The resistance index (IR) is calculated as IC50 of the resistant cell line/IC50 of the sensitive cell line. P<0.001 was considered a significant change in drug sensitivity (Student's t test).
(§2) Cell Culture Lung and ovarian cancer cell lines H23, H460, H1299, H727, A2780 and OVCAR3 were purchased from the ATCC (Manassas, Va.) or ECACC (Sigma-Aldrich, Spain). All of them were maintained in RPMI supplemented with 10% exosome-depleted FBS, except for OVCAR3 which was cultured in RPMI with 20% exosome-depleted FBS. FBS was depleted of bovine exosomes by ultracentrifugation at 100,000×g for 16 h at 4° C. The CDDP-resistant variants H23R, H460R, A2780R and OVCAR3R, and the carboplatin-resistant variants H23R-CBDCA and A2780R-CBDCA were established by exposing cells to increasing doses of each platinum-based drug as described. The CDDP sensitive and resistant ovarian cancer cell lines 41M and 41MR were provided by Dr. Kelland (UK) and maintained in DMEM supplemented with 10% exosome-depleted FBS.
(§3) To determine whether cisplatin-resistant cells transmit their resistance through exosomes we used matched CDDP-sensitive/resistant lung cancer and ovarian cell lines H23S/H23R, H460S/H460R, A2780S/A2780R and 41M/41MR and, that we established previously (Ibanez de Caceres, I. et al. IGFBP-3 hypermethylation-derived deficiency mediates cisplatin resistance in non-small-cell lung cancer. Oncogene 29, 1681-1690 (2010); Vera, O. et al. DNA Methylation of miR-7 is a Mechanism Involved in Platinum Response through MAFG Overexpression in Cancer Cells. Theranostics 7, 4118-4134 (2017)). […] We then isolated exosomes from resistant subtypes H23R, H460R, 41MR and A2780R and confirmed their proper size (around 100 nm) using electron microscopy and NanoSight analysis (FIGS. 2A and B) Once we have confirmed that our samples were successfully enriched in exosomes, we wanted to assess if exosomes from cisplatin-resistant cells could alter the drug response of sensitive cells. For that purpose, firstly, we examined whether exosomes isolated from CDDP resistant subtypes were taken up by sensitive parental cells, we labelled exosomes with PKH26 and exposed them to sensitive cells. The analysis using flow cytometry confirmed the uptake of resistant exosomes in more than 77% of sensitive cells H23S, 41M and A2780S compared with PBS control (FIG. 3).

Assay [2] relates to A2780S/A2780R ovarian cancer cell lines. The settings on record: IC50 of resistant cell line/IC50 of sensitive cell line, p<0.001. On the procedure: as §1, §2, §3
Assay [3] relates to H23S/H23R lung cancer cell lines. The conditions noted are these: IC50 of resistant cell line/IC50 of sensitive cell line, p<0.001. How it is done:
as §1, §2, §3

In assay [4] the test system is H460S/H460R lung cancer cell lines. The settings on record: IC50 of resistant cell line/IC50 of sensitive cell line, p<0.001. On the procedure:
as §1, §2, §3

As to `N.N.[Cl][Pt][Cl]` [cisplatin], the “Resistant-Index (RI)” value is 4.26 in assay [1], 2.11 in assay [2], 2.77 in assay [3] and 2.49 in assay [4].
